Measurements: PubChem BioAssay (NCI)
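Here, GI50 denotes the concentration required for 50% inhibition of growth. TGI: concentration producing complete growth inhibition.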

Assays:
Experiment in all cases: NCI anticancer screen, dose series, 384-well format
A498 renal = system: A498 renal
SNB-19 CNS = system: SNB-19 CNS
MDA-MB-231 breast = system: MDA-MB-231 breast
UACC-62 melanoma = system: UACC-62 melanoma
SW-620 colon = system: SW-620 colon
SK-MEL-28 melanoma = system: SK-MEL-28 melanoma
NCI-H226 lung = system: NCI-H226 lung
NCI/ADR-RES ovarian = system: NCI/ADR-RES ovarian
NCI-H322M lung = system: NCI-H322M lung
OVCAR-5 ovarian = system: OVCAR-5 ovarian
T-47D breast = system: T-47D breast
RXF 393 renal = system: RXF 393 renal
HCC-2998 colon = system: HCC-2998 colon

Work on `N#Cc1cnc(Nc2cc(NC[C@H]3CNCCO3)c(C(F)(F)F)cn2)cn1` yielded a GI50 (A498 renal) of 0.234 µM, a TGI (A498 renal) of 0.531 µM and a GI50 (SNB-19 CNS) of 9.81 µM. The TGI (SNB-19 CNS) was 62.7 µM, the GI50 (MDA-MB-231 breast) was 16.8 µM and the TGI (MDA-MB-231 breast) was 42.3 µM. The GI50 (UACC-62 melanoma) was 7.66 µM, the TGI (UACC-62 melanoma) was 21 µM and the GI50 (SW-620 colon) was 16.8 µM. For the same compound, the TGI (SW-620 colon) was 39.4 µM, the GI50 (SK-MEL-28 melanoma) was 18.1 µM and the TGI (SK-MEL-28 melanoma) was 35.6 µM. It also gave a GI50 (NCI-H226 lung) of 20.1 µM, a TGI (NCI-H226 lung) of 54.1 µM and a GI50 (NCI/ADR-RES ovarian) of 0.963 µM. For the same compound, the TGI (NCI/ADR-RES ovarian) was 2.91 µM, the GI50 (NCI-H322M lung) was 9.8 µM and the TGI (NCI-H322M lung) was 32.4 µM. The GI50 (OVCAR-5 ovarian) was 17.1 µM, the TGI (OVCAR-5 ovarian) was 43.9 µM and the GI50 (T-47D breast) was 25.4 µM. The TGI (T-47D breast) was 51.3 µM, the GI50 (RXF 393 renal) was 0.272 µM and the TGI (RXF 393 renal) was 0.715 µM. It also gave a GI50 (HCC-2998 colon) of 0.402 µM and a TGI (HCC-2998 colon) of 3.09 µM.
